According to patent EP2241565A1, “Aurora kinase inhibitors compounds” (Universität Leipzig, priority 2009, dated 2010):
Entries after “also recorded” stand apart in the source; their conditions may differ.

Columns and labels:
Aurora B = biological target: T1, Aurora B (Homo sapiens, UniProt Q96GD4); test: In vitro Aurora B kinase assay (Invitrogen Z'-lyte kinase assay kit, Ser/Thr 1 peptide); assay type: biochemical; details: 64 µM ATP
T1 construct: purchased Invitrogen PV3970
Description: (§1) The IC50 for the different compounds was determined with Invitrogen Z'-Iyte kinase assay kit Ser/Thr 1 peptide PV3174 following the manufacturer's instructions. […] This amount was then used in subsequent assay steps.
(§2) Compounds were prepared in 384-well plates (Greiner 384-well PP 781280) at a highest concentration of 400 µM (in 4% DMSO) and then serially diluted in 2-fold steps by hand, keeping the DMSO percentage constant. 1.25 µl of compound solution was subsequently transferred 1:1 to a 384-well assay plate (Greiner 384-well ProxiPlate Plus F 6008260) for screening at a highest concentration in the final assay of 100 µM (in 1% DMSO).
In the first step, 2.5 µl of a solution containing 8 nM Aurora A (batch S74, prepared in-house at EMBL) or 40 nM Aurora B (Invitrogen PV3970) and 4 µM Ser/Thr peptide 1 (Invitrogen PV3174) was added to each well, followed by 1.25 µl of the respective ATP solution (40 µM for Aurora A, 256 µM for Aurora B). […] In the final step, the reaction in each well was stopped by the addition of 2.5 µl Stop reagent, followed by a brief centrifugation step and immediate readout (PerkinElmer EnVision HTS; ex. 405 nm, coumarin em. 450 nm, fluorescein em. 535 nm).
Percentage phosphorylation was calculated using 0% and 100% phosphorylation controls. […]

Aurora A = biological target: T2, Aurora A (Homo sapiens, UniProt O14965); test: In vitro Aurora A kinase assay (Invitrogen Z'-lyte kinase assay kit, Ser/Thr 1 peptide); assay type: biochemical; details: for IC50: 10 µM ATP; for selectivity for Aurora A against other kinases: versus Aurora B and receptor-tyrosine kinases
T2 construct: made in house
T2 sequence (O14965 1-403): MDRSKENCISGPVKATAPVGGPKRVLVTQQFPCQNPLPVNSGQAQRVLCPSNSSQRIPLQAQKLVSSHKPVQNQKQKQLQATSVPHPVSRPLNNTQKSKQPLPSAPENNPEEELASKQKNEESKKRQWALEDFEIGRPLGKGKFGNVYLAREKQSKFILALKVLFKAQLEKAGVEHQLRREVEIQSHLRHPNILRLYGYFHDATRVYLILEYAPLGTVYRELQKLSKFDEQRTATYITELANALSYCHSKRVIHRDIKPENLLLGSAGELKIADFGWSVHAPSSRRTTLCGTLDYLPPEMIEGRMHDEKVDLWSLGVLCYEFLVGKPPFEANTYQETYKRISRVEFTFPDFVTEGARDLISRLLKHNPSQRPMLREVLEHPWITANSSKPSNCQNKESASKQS
Description: as §1, §2
In the first step, 2.5 µl of a solution containing 8 nM Aurora A (batch S74, prepared in-house at EMBL) or 40 nM Aurora B (Invitrogen PV3970) and 4 µM Ser/Thr peptide 1 (Invitrogen PV3174) was added to each well, followed by 1.25 µl of the respective ATP solution (40 µM for Aurora A, 256 µM for Aurora B). The final 5 µl reaction volume consisted of 4 nM Aurora A or 20 nM Aurora B, 2 µM Ser/Thr 1 peptide, 50 mM HEPES pH 7.5, 0.01 % BRIJ-35, 10 mM MgCl2, and 1 mM EGTA, in addition to 10 µM or 64 µM ATP (for Aurora A and Aurora B, respectively). […] The plates were then spun down at 1000 rpm for 1 min, followed by incubation at rt for 1 h. In the second step, 2.5 µl of Development solution (Development A reagent diluted 1:2048 in development buffer) was added to each well, followed again by centrifugation at 1000 rpm for 1 min and subsequent incubation at rt for 1 h. In the final step, the reaction in each well was stopped by the addition of 2.5 µl Stop reagent, followed by a brief centrifugation step and immediate readout (PerkinElmer EnVision HTS; ex. 405 nm, coumarin em. 450 nm, fluorescein em. 535 nm).
Percentage phosphorylation was calculated using 0% and 100% phosphorylation controls. The former wells contained 1.25 µl DMSO (4%), 1.25 µl buffer (as above), and 2.5 µl of a 4 µM Ser/Thr 1 peptide solution (without kinase), while in the latter the peptide solution was replaced by a 4 µM solution of a supplied phosphopeptide. The action of the development reagent was assessed using protease controls (standard wells with and without development solution added in step two).
The [coumarin emission/fluorescein emission] ratio was used together with the min. and max. signals at the two wavelengths to yield percentage phosphorylation, from which inhibition was derived (according to manufacturer's instructions). Calculated inhibition values were then fitted to 11-point variable slope sigmoidal dose-response curves using GraphPad Prism software, yielding the compound IC50s.

[1] = system: H2B-GFP/mRFP-αTubulin HeLa cells; test: Time-lapse video microscopy of live cells; assay type: cell-based, human; details: 40 µM
Description: Upon treatment, living cells were added to a humidified chamber at 37 °C with 5% CO2 attached to a Carl Zeiss microscope (SN:3834000366) equipped with a Hamamatsu EM-CCD digital camera, controlled by AxioVision 4.6 software. Cells were imaged every 3 or 4.5 min (depending on the number of fields filmed) for over 16 h-24 h. Images were taken with the AxioCam MRm 426205 objective and processed using AxioVision software.
The increase in the proportion of cells with more than 2n DNA content could be due to several causes: several cycles of DNA replication or cytokinesis errors as shown for cells treated with other Aurora inhibitors. To determine the primary cause for the phenotype produced by (C) and examine whether (A) may interfere with mitosis, we examined live cells by time-lapse video microscopy. To visualize DNA and microtubules we used a HeLa stable cell line expressing H2B-GFP and mRFP-αTubulin. […] The resulting time-lapse images were used to determine the following parameters: (1) the percentage of cell death among non dividing cells (Figure 4A), (2) the percentage of cells entering mitosis (Figure 4B), (3) the outcome of mitosis: normal division (cell division), return to interphase without chromatin segregation and without dividing (no division), cytokinesis failure (division errors), cell death without resolving mitosis (cell death) (Figure 4C), and (4) the length of time spent in mitosis (TIM), defined as the interval between DNA condensation and anaphase resolution (Figure 4D).

[2] = system: histone H3 phosphorylation on Ser 10; test: Western Blot analysis of histone H3 phosphorylation in mitotic cells; assay type: cell-based, human; details: mitotic HeLa cells synchronized with nocodazole, treated 20 h, any of the concentrations tested
Description: For Western Blot analysis of HH3 phosphorylation levels in mitosis HeLa cells were arrested with 2 mM thymidine for 18 h, released into fresh medium for 6 h, and blocked with 2 µM nocodazole for 16 h. DMSO or the different compounds were added 1 h after thymidine release. Mitotic cells were shaken off and lysed in 50 mM Tris pH 6,8- 2% SDS. Samples were sonicated and boiled. 30 µg protein extract (as determined by Bradford assay, Bio-Rad protein assay) was loaded on SDS-PAGE, transferred to a nitrocellulose membrane and blotted with anti-phospho HH3 (Upstate), anti-Aurora A and anti-tubulin antibodies (Sigma, DM1A).

T1 sequence (Q96GD4 whole entry): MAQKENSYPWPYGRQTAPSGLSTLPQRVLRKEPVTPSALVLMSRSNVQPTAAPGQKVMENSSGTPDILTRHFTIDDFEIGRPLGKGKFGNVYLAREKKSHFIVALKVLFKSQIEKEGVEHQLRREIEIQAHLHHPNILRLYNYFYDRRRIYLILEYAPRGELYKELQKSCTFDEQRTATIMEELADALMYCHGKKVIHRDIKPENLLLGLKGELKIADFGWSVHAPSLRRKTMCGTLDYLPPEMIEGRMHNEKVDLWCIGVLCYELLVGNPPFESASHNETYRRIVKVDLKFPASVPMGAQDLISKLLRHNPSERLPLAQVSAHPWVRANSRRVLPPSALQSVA

Compound | IC50 (Aurora B) | IC50 (Aurora A) | selectivity for Aurora A against other kinases (Aurora A) | cell death among non dividing cells / cell viability [1] | outcome of mitosis [1] | HH3-Ser10 phosphorylation [2] | time spent in mitosis (TIM), median [1] | number of cells entering mitosis ([1]; 16 h-24 h) | cells entered mitosis ([1]; time-lapse video microscopy)
CC(C)Nc1nc(-c2ccco2)nc2ccc(/C=C/C(C)(C)O)cc12 [Compound (A), (E)-4-(2-(Furan-2-yl)-4-(isopropylamino)quinazolin-6-yl)-2-methylbut-3-en-2-ol] | 16.2 µM | 1.93 µM | selective inhibition of Aurora A | increased cell death rate; also recorded: massive cell death; also recorded: strong effect on cell viability independent of mitosis | completed it successfully | no effect | – | – | –
CC(C)Nc1nc(-c2ccco2)nc2ccc(C#CCO)cc12 [Compound (C), 3-(2-(Furan-2-yl)-4-(isoiproipylamino)quinazolin-6-yl)prop-2-yn-l-ol] | 3380 µM | 2.75 µM | selective inhibition of Aurora A | – | unable to align their chromosomes and died without entering a new interphase; also recorded: died without returning to interphase or right after an asymmetric segregation | no effect | 375 min | reduced | 28.8%
